This experiment concerns AMO-1 (a multiple myeloma cell line). Nature of the experiment: ADCC set up II, AMO-1 cells. It is filed as cell-based. Conditions: CD38 expression is low. The method, then: Human blood from human volunteers (university Erlangen, Erlangen, Germany) was diluted twice in RPMI 1640 and blood cells were layered on Ficoll (Lymphocyte Separation Medium […], 710 g, RT, 20 min; BioWhittaker, Cambrex Bio Science Verviers, Verviers, Belgium, cat. 17-829E, lot no. 0148 32). Peripheral blood mononuclear cells (MNCs) were collected from the interphase, washed and resuspended in RPMI 1640 culture medium supplemented with 10% FCS, 2 mM L-glutamine, 5 U/ml penicillin, 50 μg/ml streptomycin (all derived from BioWhittaker) to which 25 mM HEPES (BioWhittaker) was added.
Target B-cells (fresh plasma cell leukemia tumor cells, JK6L and AMO-1 B-cell lines, obtained from Dr. T. Valerius, University of Erlangen, Erlangen, Germany) were labeled with 20 μCi ^51Cr (Amersham Biosciences, Uppsala, Sweden) for 2 hours. After extensive washing in RPMI-10, cells were adjusted to 1×10^5 cells/ml. […] After incubation (3 hr, 37° C.), assays were stopped by centrifugation, and 51Cr release from triplicates was measured in counts per minute (cpm) in a scintillation counter. Percentage of cellular cytotoxicity was calculated using the following formula: […]
with maximal ^51Cr release determined by adding perchloric acid (3% final concentration) to target cells, and basal release was measured in the absence of sensitizing antibodies and effector cells.

On to “-005: human monoclonal IgG1 anti-CD38 antibody, VL region SEQ ID No:12 and VH region SEQ ID No:17”, for which the “lysis of AMO-1 by ADCC” value is recorded as “lysis is induced”.
